Results taken from patent US9694005B2, “Nonsteroidal and steroidal compounds with potent androgen receptor down-regulation and anti prostate cancer activity” (University of Maryland, Baltimore, priority 2013, dated 2017).
Read-outs that look alike come from different tables or passages of the source. Blank lines part the entries; values can stand above or below the compound they belong to.

Tests used:
LNCaP cells = test: Cell growth inhibition (MTT colorimetric assay), LNCaP; assay type: cell-based, human; conditions: Homo sapiens
Method: (§1) Compounds were evaluated on their ability to inhibit LNCaP cell (androgen sensitive AR-mutant), C4-2B and CWR22Rv1 (CRPC cell lines) viability at 1 and 10 μM concentrations by the MTT assy.
(§2) The cells were seeded in 96-well plates (Corning Costar) at a density of 5×10^3 cells per well. Cells were allowed to adhere to the plate for 24 hours and then treated with various concentrations of compounds dissolved in 95% EtOH. Cells were treated for 7 days with renewal of test compound and media on day 4. On the 7th day, medium was renewed and MTT (3-(4,5-dimethylthiazol-2-yl)-2,5-diphenyl-2H-tetrazolium bromide) (Sigma, St Louis, Mo., USA) solution (0.5 mg MTT per ml of media) was added to the medium such that the ratio of MTT: medium was 1:10. The cells were incubated with MTT for 2 hours. The medium was then aspirated and DMSO was added to solubilize the violet MTT-formazan product. The absorbance at 562 nm was measured by spectrophotometry (Biotek Inc.).

[1] = test system: full length AR and the splice variants ARs; test: AR down-regulation in CWR22Rv1 (FIGS. 9D, 9E, 9F); assay type: cell-based, human; conditions: 9E and 9F
Method: (§3) In the experiments show in FIG. 9, LNCaP and CWR22Rv1 cells were treated VN/124-1 and analogs at varying time points and effects on significant cancer cells promoting genes investigated at the protein level.

[2] = test system: LNCaP cell, C4-2B and CWR22Rv1; test: Cell growth inhibition (MTT), anticancer activity, cell line not given; assay type: cell-based, human; conditions: cell line not stated
Method: as §1

AR protein = target: T1, AR protein (Homo sapiens, UniProt P10275, T878A); test: Western blotting, AR protein levels in LNCaP cells; assay type: cell-based; conditions: 15 μM of each compound for 24 h (FIG. 8)
T1 construct: Effect of compounds on suppression of AR protein levels in LNCaP cells; endogenous in cells; host or cells: LNCaP
T1 sequence (P10275 1-920 T878A): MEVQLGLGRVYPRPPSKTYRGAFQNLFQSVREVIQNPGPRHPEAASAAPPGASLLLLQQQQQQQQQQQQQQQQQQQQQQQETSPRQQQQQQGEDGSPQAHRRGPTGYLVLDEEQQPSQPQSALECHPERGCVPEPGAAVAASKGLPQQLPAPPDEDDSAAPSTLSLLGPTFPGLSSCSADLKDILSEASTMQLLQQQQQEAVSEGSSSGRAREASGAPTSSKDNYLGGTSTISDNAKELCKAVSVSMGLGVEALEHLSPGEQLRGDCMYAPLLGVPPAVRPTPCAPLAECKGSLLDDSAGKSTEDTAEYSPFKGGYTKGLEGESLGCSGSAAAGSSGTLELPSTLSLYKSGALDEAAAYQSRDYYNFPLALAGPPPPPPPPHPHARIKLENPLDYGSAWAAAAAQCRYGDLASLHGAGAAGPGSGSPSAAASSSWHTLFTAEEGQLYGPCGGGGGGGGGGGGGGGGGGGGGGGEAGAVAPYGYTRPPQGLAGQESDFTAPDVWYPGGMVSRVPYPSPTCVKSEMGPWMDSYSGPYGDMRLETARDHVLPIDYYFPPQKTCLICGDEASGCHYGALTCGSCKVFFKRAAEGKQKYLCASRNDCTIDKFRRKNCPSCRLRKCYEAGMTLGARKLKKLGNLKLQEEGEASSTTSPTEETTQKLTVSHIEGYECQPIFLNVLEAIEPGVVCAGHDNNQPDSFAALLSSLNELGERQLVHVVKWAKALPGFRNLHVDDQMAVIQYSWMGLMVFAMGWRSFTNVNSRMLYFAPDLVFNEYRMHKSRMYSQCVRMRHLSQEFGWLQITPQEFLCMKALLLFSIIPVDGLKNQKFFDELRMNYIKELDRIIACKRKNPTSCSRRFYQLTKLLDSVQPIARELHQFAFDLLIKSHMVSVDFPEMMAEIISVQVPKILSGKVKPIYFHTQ
Method: The ability of various compounds to down-regulate AR protein expressions was determined by western blotting.

CWR22Rv1 = test: Cell growth inhibition (MTT colorimetric assay), CWR22Rv1; assay type: cell-based; conditions: Homo sapiens
Method: as §1, §2

PC3 cells = test: Cell migration of PC3 cells; assay type: cell-based, human; conditions: 5 μM, after 12 hours; FIG. 10
[3] = test system: PARP cleavage, CDC25c, Mnk2, Cyclin D1, Cox-2 and N-Cadherin in LNCaP cells; test: Effects of compounds on oncogenes at the protein level, LNCaP cells; assay type: cell-based, human; conditions: FIGS. 9A and 9C
Method: as §3

[4] = test system: N-Cadherin, AR3, Mnk1/2, MMP-2, Ezh2, Mc1-1, eIF4E phosphorylation in CWR22Rv1 cells; test: Effects of compounds on oncogenes at the protein level, CWR22Rv1 cells; assay type: cell-based, human; conditions: FIGS. 9B and 9G
full length AR = test: AR down-regulation (FIG. 9H); assay type: cell-based, human
[5] = LNCaP, 168 h, Steroidal VNPP compounds table, treated for 7 days, read-out: GI50 Values High Passage LNCaP
[6] = Table 10, LNCaP low passage, concentration required to inhibit cell growth by 50%, read-out: GI50 Values LNCaP (Low Passage)
[7] = CWR22Rv1, 168 h, Non-steroidal VNPP compounds table, treated for 7 days
[8] = LNCaP, 168 h, Non-steroidal VNPP compounds table, treated for 7 days, read-out: GI50 Values High Passage LNCaP
[9] = LNCaP, 168 h, Non-steroidal VNPP compounds table, treated for 7 days, read-out: GI50 Values Low Passage LNCaP
[10] = CWR22Rv1, 168 h, Steroidal VNPP compounds table, treated for 7 days
[11] = LNCaP, 168 h, Steroidal VNPP compounds table, treated for 7 days, read-out: GI50 Values Low Passage LNCaP
[12] = Table 10, LNCaP high passage, read-out: GI50 Values LNCaP (High Passage)

GI50 (LNCaP cells; [5]): 4.85 µM
GI50 (LNCaP cells; [6]): 4.85 µM
Structure (SMILES): CNC(=O)c1ccc(N2C(=S)N(c3ccc(C#N)c(C(F)(F)F)c3)C(=O)C2(C)C)cc1F [MDV3100, reference compound]

Structure (SMILES): C[C@]12CCC3c4ccc(O)cc4CCC3C1CC=C2n1cnc2ccccc21 (stereo partly drawn) [VNPP338]
AR down-regulation against full length AR and the splice variants ARs [1]: showed activity (AR down-regulation)
Anticancer activity (SAR statement) [2]: equal potent anticancer activity to compound VN/124-1
AR down-regulating action (AR protein levels, western blot) (AR protein): potent AR down-regulating agents

Structure (SMILES): C[C@]12CCC3c4ccc(C(=O)O)cc4CCC3C1CC=C2n1cnc2ccccc21 (stereo partly drawn) [VNPP341]
AR down-regulation against full length AR and the splice variants ARs [1]: showed activity (AR down-regulation)
Anticancer activity (SAR statement) [2]: moderately acting
AR down-regulating action (AR protein levels, western blot) (AR protein): AR up-regulators

GI50 (LNCaP cells; [8]): 4.41 µM
Structure (SMILES): COc1cccc(-c2ccc(Cn3cnc4ccccc43)cc2)c1 [VNPP347B, 3-[4-(benzimidazolylmethyl)phenyl]-1-methoxybenzene]
GI50 (CWR22Rv1; [7]): 14 µM

GI50 (LNCaP cells; [8]): 3.5 µM
GI50 (LNCaP cells; [9]): 3.71 µM
Structure (SMILES): N#Cc1cccc(-c2ccc(Cn3cnc4ccccc43)cc2)c1 [VNPP358, 3-[4-(benzimidazolylmethyl)phenyl]benzenecarbonitrile]
GI50 (CWR22Rv1; [7]): 10.5 µM

melting point: 231 to 233 °C
Structure (SMILES): c1cc(-c2ccc(Cn3cnc4ccccc43)cc2)cc(-c2nn[nH]n2)c1 [VNPP361, 5-{3-[4-(benzimidazolylmethyl)phenyl]phenyl}-1H-1,2,3,4-tetraazole]

melting point: 223 to 225 °C
Structure (SMILES): c1cc(-c2ccc(CCn3cnc4ccccc43)cc2)cc(-c2nn[nH]n2)c1 [VNPP364, 5-{3-[4-(benzimidazolylethyl)phenyl]phenyl}-1H-1,2,3,4-tetraazole]

GI50 (LNCaP cells; [8]): 6.09 µM
GI50 (LNCaP cells; [9]): 5.77 µM
Structure (SMILES): Oc1ccc2cc(-c3cccc(-n4cnc5ccccc54)c3)ccc2c1 [VNPP372/2, 6-(3-benzimidazolylphenyl)naphthalen-2-ol]
GI50 (CWR22Rv1; [7]): 8.91 µM

Structure (SMILES): C[C@]12CC[C@H](OC(=S)n3ccnc3)CC1=CCC1C2CC[C@]2(C)C(n3cnc4ccccc43)=CCC12 (stereo partly drawn) [VNPP397, 3β-(1H-imidazole-1-thiocarboxylate)-17-(1H-benzimidazol-1-yl)androsta-5,16-diene]
GI50 (CWR22Rv1; [10]): 7.52 µM
GI50 (LNCaP cells; [5]): 9.57 µM

Structure (SMILES): CO[C@H]1CC[C@@]2(C)C(=CC[C@@H]3[C@@H]2CC[C@]2(C)C(n4cnc5ccccc54)=CC[C@@H]32)C1 [VNPP412, 3β-(methoxy)-17-(1H-benzimidazol-1-yl) androsta-5,16-diene]
GI50 (CWR22Rv1; [10]): 7.5 µM
GI50 (LNCaP cells; [5]): 8.71 µM

Structure (SMILES): C[C@]12CC[C@H](OCc3ccncc3)CC1=CC[C@@H]1[C@@H]2CC[C@]2(C)C(n3cnc4ccccc43)=CC[C@@H]12 [VNPP414, 3β-(pyridine-4-ylmethoxy)-17-(1H-benzimidazol-1-yl) androsta-5,16-diene]
Migration of PC3 cells (PC3 cells): profoundly inhibit migration
GI50 (CWR22Rv1; [10]): 3.24 µM
GI50 (CWR22Rv1; CWR22Rv1, Table 10): 3.24 µM
Expression of CDC25c, Mnk2, Cyclin D1, Cox-2 and N-Cadherin [3]: reduced
PARP cleavage (signature of apoptosis) [3]: significant increase
Phosphorylation of eIF4E [4]: downregulated
Protein expression of N-Cadherin, AR3, Mnk1/2, MMP-2, Ezh2, Mc1-1 [4]: decreased
GI50 (LNCaP cells; [5]): 2.45 µM
GI50 (LNCaP cells; [11]): 0.87 µM
GI50 (LNCaP cells; [12]): 2.45 µM
GI50 (LNCaP cells; [6]): 0.87 µM

GI50 (LNCaP cells; [8]): 3.14 µM
GI50 (LNCaP cells; [9]): 5.23 µM
Structure (SMILES): COc1ccc(S(=O)(=O)Nc2cccc(-n3cnc4ccccc43)c2)cc1 [VNPP431, (3-benzimidazolylphenyl)[(4-methoxyphenyl)sulfonyl]amine]
GI50 (CWR22Rv1; [7]): 4.78 µM

Structure (SMILES): C[C@]12CC[C@H](n3cnc4ccccc43)CC1=CC[C@@H]1[C@@H]2CC[C@]2(C)C(n3cnc4ccccc43)=CC[C@@H]12 [VNPP433 (A2), 3β-(1H-benzimidazol-1-yl)-17-(1H-benzimidazol-1-yl)androsta-5,16-diene]
AR down-regulation against full length AR (full length AR): activity (AR down-regulation)

Structure (SMILES): C[C@]12CC[C@@H](n3ccnc3)CC1=CC[C@@H]1[C@@H]2CC[C@]2(C)C(n3cnc4ccccc43)=CC[C@@H]12 [VNPP433-3α, 3α-(1H-imidazol-1-yl)-17-(1H-benzimidazol-1-yl) androsta-5,16-diene]
GI50 (CWR22Rv1; [10]): 9.88 µM
GI50 (LNCaP cells; [5]): 8.91 µM
GI50 (LNCaP cells; [11]): 4.04 µM
AR down-regulation against full length AR (full length AR): activity (AR down-regulation)

Structure (SMILES): C[C@]12CC[C@H](n3ccnc3)CC1=CC[C@@H]1[C@@H]2CC[C@]2(C)C(n3cnc4ccccc43)=CC[C@@H]12 [VNPP433-3β, 3β-(1H-imidazol-1-yl)-17-(1H-benzimidazol-1-yl) androsta-5,16-diene]
GI50 (CWR22Rv1; [10]): 2.54 µM
GI50 (CWR22Rv1; CWR22Rv1, Table 10): 2.54 µM
GI50 (LNCaP cells; [5]): 1.64 µM
GI50 (LNCaP cells; [11]): 0.81 µM
GI50 (LNCaP cells; [12]): 1.64 µM
GI50 (LNCaP cells; [6]): 0.81 µM
AR down-regulation against full length AR (full length AR): activity (AR down-regulation)

Structure (SMILES): C[C@]12CCC3CC31[C@H](n1ccnc1)CC1C3CC=C(n4cnc5ccccc54)C3CCC12 (stereo partly drawn) [VNPP433-6β, 6β-imidazol-1yl-3,5-cycloandrostan-17-benzimidazole-1-yl-16-ene]
GI50 (CWR22Rv1; [10]): 12.3 µM
GI50 (LNCaP cells; [5]): 6.61 µM
AR down-regulation against full length AR (full length AR): activity (AR down-regulation)
